Assay results as given in ChEMBL document CHEMBL3885881, “DrugMatrix”.

Species on record: Rattus norvegicus
Assay: DrugMatrix - Regimen: Daily Repeat
Format: toxicity, organism-based, Sprague-Dawley
Set-up: regimen Daily Repeat, gender Male, age 6-8 weeks
Details: in vivo, po, route oral GAVAGE, […]; for MONOCYTE / NEUTROPHIL / NUCLEATED RED BLOOD CELLS / PLATELET COUNT / ABSOLUTE BASOPHIL / ABSOLUTE EOSINOPHIL / ABSOLUTE LYMPHOCYTE / ABSOLUTE MONOCYTE / ABSOLUTE SEGMENTED NEUTROPHIL / BASOPHIL / EOSINOPHIL / ERYTHROCYTE COUNT / HEMATOCRIT / LEUKOCYTE COUNT / MEAN CORPUSCULAR HEMOGLOBIN / MEAN CORPUSCULAR HEMOGLOBIN CONCENTRATION / MEAN CORPUSCULAR VOLUME: tissue Blood; for ALANINE AMINOTRANSFERASE / ALBUMIN / ALKALINE PHOSPHATASE / ASPARTATE AMINOTRANSFERASE / BLOOD UREA NITROGEN / CHLORIDE / CREATINE PHOSPHOKINASE / CREATININE / GLUCOSE / LACTATE DEHYDROGENASE / LIPASE / PHOSPHORUS / POTASSIUM / TOTAL BILIRUBIN / URIC ACID / CHOLESTEROL: tissue Plasma
[1] = 150 mg/kg, 72 h, dose level M1, time 3 day
[2] = 300 mg/kg, 72 h, dose level High, time 3 day
[3] = 300 mg/kg, 120 h, dose level High, time 5 day

Question: How did the MONOCYTE [1] turn out when C[C@@H]1C[C@H]2[C@@H]3CCC4=CC(=O)C=C[C@]4(C)[C@@]3(F)[C@@H](O)C[C@]2(C)[C@@]1(O)C(=O)CO [DEXAMETHASONE] was run?
Answer: The MONOCYTE was 0%.

Question: And the NEUTROPHIL [1]?
Answer: Its NEUTROPHIL is 90.33%.

Question: What about the “NUCLEATED RED BLOOD CELLS” value [1] of the same compound?
Answer: The value was 0 /100WBC.

Question: What about the “PLATELET COUNT” value [1] of the same compound?
Answer: The value was 661.67 x10E3/uL.

Question: What about the “ALANINE AMINOTRANSFERASE” value [1] of the same compound?
Answer: Its value is 222.67 u/L.

Question: What about the ALBUMIN [1] of the same compound?
Answer: Its ALBUMIN is 4.03 G/DL.

Question: What about the “ALKALINE PHOSPHATASE” value [1] of the same compound?
Answer: The value was 224 u/L.

Question: What about the “ASPARTATE AMINOTRANSFERASE” value [1] of the same compound?
Answer: Its value is 153.67 u/L.

Question: What about the “BLOOD UREA NITROGEN” value [1] of the same compound?
Answer: Its value is 40.67 mg/dL.

Question: What about the CHLORIDE [1] of the same compound?
Answer: The CHLORIDE was 88.33 MEQ/L.

Question: What about the “CREATINE PHOSPHOKINASE” value [1] of the same compound?
Answer: The value was 139 u/L.

Question: And the CREATININE [1]?
Answer: The CREATININE was 0.28 mg/dL.

Question: And the GLUCOSE [1]?
Answer: Its GLUCOSE is 361.33 mg/dL.

Question: And the “LACTATE DEHYDROGENASE” value [1]?
Answer: Its value is 175.33 u/L.

Question: What about the LIPASE [1] of the same compound?
Answer: The LIPASE was 12 u/L.

Question: What about the PHOSPHORUS [1] of the same compound?
Answer: The PHOSPHORUS was 7.7 mg/dL.

Question: What about the POTASSIUM [1] of the same compound?
Answer: Its POTASSIUM is 3.29 MEQ/L.

Question: What about the “TOTAL BILIRUBIN” value [1] of the same compound?
Answer: Its value is 0.27 mg/dL.

Question: And the “URIC ACID” value [1]?
Answer: The value was 0.6 mg/dL.

Question: What about the “ABSOLUTE BASOPHIL” value [2] of the same compound?
Answer: The value was 0 CELLS/uL.

Question: What about the “ABSOLUTE EOSINOPHIL” value [2] of the same compound?
Answer: Its value is 101.33 CELLS/uL.

Question: What about the “ABSOLUTE LYMPHOCYTE” value [2] of the same compound?
Answer: The value was 370.67 CELLS/uL.

Question: And the “ABSOLUTE MONOCYTE” value [2]?
Answer: The value was 0 CELLS/uL.

Question: And the “ABSOLUTE SEGMENTED NEUTROPHIL” value [2]?
Answer: Its value is 13461.33 CELLS/uL.

Question: And the BASOPHIL [2]?
Answer: Its BASOPHIL is 0%.

Question: And the EOSINOPHIL [2]?
Answer: The EOSINOPHIL was 0.67%.

Question: And the “ERYTHROCYTE COUNT” value [2]?
Answer: Its value is 4.56 x10E6/uL.

Question: And the HEMATOCRIT [2]?
Answer: Its HEMATOCRIT is 29.6%.

Question: And the “LEUKOCYTE COUNT” value [2]?
Answer: The value was 13.93 x10E3/uL.

Question: What about the “MEAN CORPUSCULAR HEMOGLOBIN” value [2] of the same compound?
Answer: The value was 26.77 pg.

Question: And the “MEAN CORPUSCULAR HEMOGLOBIN CONCENTRATION” value [2]?
Answer: The value was 41.3 G/DL.

Question: What about the “MEAN CORPUSCULAR VOLUME” value [2] of the same compound?
Answer: Its value is 64.73 fL.

Question: And the MONOCYTE [2]?
Answer: The MONOCYTE was 0%.

Question: And the NEUTROPHIL [2]?
Answer: Its NEUTROPHIL is 96.67%.

Question: And the “NUCLEATED RED BLOOD CELLS” value [2]?
Answer: The value was 3 /100WBC.

Question: And the “PLATELET COUNT” value [2]?
Answer: The value was 922.33 x10E3/uL.

Question: What about the “ALANINE AMINOTRANSFERASE” value [2] of the same compound?
Answer: Its value is 191 u/L.

Question: What about the ALBUMIN [2] of the same compound?
Answer: Its ALBUMIN is 3.07 G/DL.

Question: And the “ALKALINE PHOSPHATASE” value [2]?
Answer: Its value is 263 u/L.

Question: What about the “ASPARTATE AMINOTRANSFERASE” value [2] of the same compound?
Answer: Its value is 136.33 u/L.

Question: And the “BLOOD UREA NITROGEN” value [2]?
Answer: Its value is 17 mg/dL.

Question: What about the CHLORIDE [2] of the same compound?
Answer: The CHLORIDE was 90.33 MEQ/L.

Question: And the CHOLESTEROL [2]?
Answer: The CHOLESTEROL was 231 mg/dL.

Question: And the “CREATINE PHOSPHOKINASE” value [2]?
Answer: Its value is 714.67 u/L.

Question: What about the CREATININE [2] of the same compound?
Answer: The CREATININE was 0.13 mg/dL.

Question: What about the GLUCOSE [2] of the same compound?
Answer: Its GLUCOSE is 404.67 mg/dL.

Question: What about the “LACTATE DEHYDROGENASE” value [2] of the same compound?
Answer: The value was 193.33 u/L.

Question: What about the LIPASE [2] of the same compound?
Answer: The LIPASE was 55 u/L.

Question: What about the PHOSPHORUS [2] of the same compound?
Answer: Its PHOSPHORUS is 10.2 mg/dL.

Question: What about the POTASSIUM [2] of the same compound?
Answer: Its POTASSIUM is 3.86 MEQ/L.

Question: And the “TOTAL BILIRUBIN” value [2]?
Answer: Its value is 1.1 mg/dL.

Question: And the “URIC ACID” value [2]?
Answer: Its value is 1.1 mg/dL.

Question: What about the “ABSOLUTE BASOPHIL” value [3] of the same compound?
Answer: Its value is 0 CELLS/uL.

Question: What about the “ABSOLUTE EOSINOPHIL” value [3] of the same compound?
Answer: The value was 0 CELLS/uL.

Question: What about the “ABSOLUTE LYMPHOCYTE” value [3] of the same compound?
Answer: Its value is 332 CELLS/uL.

Question: What about the “ABSOLUTE MONOCYTE” value [3] of the same compound?
Answer: The value was 0 CELLS/uL.

Question: And the “ABSOLUTE SEGMENTED NEUTROPHIL” value [3]?
Answer: Its value is 16268 CELLS/uL.

Question: And the BASOPHIL [3]?
Answer: Its BASOPHIL is 0%.

Question: And the EOSINOPHIL [3]?
Answer: Its EOSINOPHIL is 0%.

Question: And the “ERYTHROCYTE COUNT” value [3]?
Answer: The value was 2.89 x10E6/uL.

Question: What about the HEMATOCRIT [3] of the same compound?
Answer: Its HEMATOCRIT is 17%.

Question: What about the “LEUKOCYTE COUNT” value [3] of the same compound?
Answer: The value was 16.6 x10E3/uL.

Question: And the “MEAN CORPUSCULAR HEMOGLOBIN” value [3]?
Answer: Its value is 25.3 pg.

Question: What about the “MEAN CORPUSCULAR HEMOGLOBIN CONCENTRATION” value [3] of the same compound?
Answer: Its value is 42.9 G/DL.

Question: What about the “MEAN CORPUSCULAR VOLUME” value [3] of the same compound?
Answer: The value was 58.9 fL.

Question: What about the MONOCYTE [3] of the same compound?
Answer: Its MONOCYTE is 0%.

Question: And the NEUTROPHIL [3]?
Answer: The NEUTROPHIL was 98%.

Question: What about the “NUCLEATED RED BLOOD CELLS” value [3] of the same compound?
Answer: Its value is 0 /100WBC.

Question: What about the “PLATELET COUNT” value [3] of the same compound?
Answer: The value was 777 x10E3/uL.

Question: What about the “ALANINE AMINOTRANSFERASE” value [3] of the same compound?
Answer: The value was 1291 u/L.

Question: And the ALBUMIN [3]?
Answer: Its ALBUMIN is 3.2 G/DL.

Question: What about the “ALKALINE PHOSPHATASE” value [3] of the same compound?
Answer: Its value is 579 u/L.

Question: What about the “ASPARTATE AMINOTRANSFERASE” value [3] of the same compound?
Answer: The value was 470 u/L.

Question: What about the “BLOOD UREA NITROGEN” value [3] of the same compound?
Answer: Its value is 26 mg/dL.

Question: And the CHLORIDE [3]?
Answer: The CHLORIDE was 87 MEQ/L.

Question: And the CHOLESTEROL [3]?
Answer: Its CHOLESTEROL is 201 mg/dL.

Question: And the “CREATINE PHOSPHOKINASE” value [3]?
Answer: The value was 1188 u/L.

Question: What about the CREATININE [3] of the same compound?
Answer: The CREATININE was 0.1 mg/dL.

Question: And the GLUCOSE [3]?
Answer: Its GLUCOSE is 443 mg/dL.

Question: What about the “LACTATE DEHYDROGENASE” value [3] of the same compound?
Answer: Its value is 750 u/L.

Question: What about the LIPASE [3] of the same compound?
Answer: Its LIPASE is 9 u/L.

Question: And the PHOSPHORUS [3]?
Answer: Its PHOSPHORUS is 10.7 mg/dL.

Question: What about the POTASSIUM [3] of the same compound?
Answer: Its POTASSIUM is 2.68 MEQ/L.

Question: What about the “TOTAL BILIRUBIN” value [3] of the same compound?
Answer: Its value is 0.8 mg/dL.

Question: And the “URIC ACID” value [3]?
Answer: The value was 0.7 mg/dL.
